Test results published in patent US9833494B2, “Methods of treating medical conditions using peptides” (KeyBioscience AG, priority 2009, dated 2017).
Entries after “also recorded” stand apart in the source; their conditions may differ. Bridge positions count the residues as written; N and C are the ends. Ends that are not written are not given here.

Experiments:
[1] = placebo controlled crossover study with Beagle dogs, oral enteric-coated capsules (food intake, weight); type: in vivo, Beagle dog; settings: for effect on food intake / change in weight during the dosing period: oral capsules; for effect on food intake: equivalent doses, week of dosing, FIG. 2; for change in weight during the dosing period: same dose, FIG. 3
Excerpt: (§1) FIG. 2 is a graph illustrating the effect on food consumption provided by SEQ ID NO: 3 versus a placebo and two known appetite suppressants in a Beagle dog study. Average daily change in food consumption is shown following administration of oral capsules containing various doses of sCT, PYY or SEQ ID NO: 3 given to beagle dogs for four to seven days.
as §1, with “3” for “2”, “weight” for “food consumption”, “PYY,” for “PYY”
The effect of peptide SEQ ID NO: 3 on food intake was investigated in a placebo controlled crossover study with Beagle dogs. Peptide SEQ ID NO: 3, as well as salmon calcitonin (sCT) and PYY(3-36)NH2 were formulated in enteric-coated capsules for oral delivery. The capsules also contained excipients that inhibit proteases and enhance the absorption of peptides. Placebo capsules contained the same excipients without the peptide. Food and water intake, as well as the weight of the dogs was monitored daily before, during, and after the dosing period. Dogs were allowed access to a known amount of food for an 8 hour period every day, and water was provided ad libitum. […] The food intake of dogs given a placebo remained unchanged.

[2] = relative weight change by rats injected daily; type: in vivo, rat; settings: for relative weight change: same dose; for effectiveness in weight control: FIGS. 5 and 6
Excerpt: FIG. 5 is a graph illustrating relative weight change by rats injected daily with the same dose of either a placebo, UGP269 (SEQ ID NO: 12) or UGP 271 (SEQ ID NO: 13), at 7 and 14 days after commencement of the injection regimen. […] UGP 271 contained nearly the same sequence of amino acids as UGP269 except for the replacement of three amino acids at positions 26, 27 and 29.
FIG. 6 is a graph illustrating relative weight change by rats injected daily with the same dose of either a placebo, salmon calcitonin, UGP 271 (SEQ ID NO: 13) or UGP 281 (SEQ ID NO: 14) at 7 and 14 days after commencement of the injection regimen. FIG. 1 is a graph illustrating data from a bioassay comparing cAMP response for a peptide of the invention, SEQ ID NO:3, versus recombinant salmon calcitonin. […] UGP281 and UGP271 had identical amino acid sequences except that UGP281 was acylated at the N-terminus with acetate.

[3] = target: T1, calcitonin receptor (Homo sapiens, UniProt P30988); assay: cAMP response bioassay with T47D cells; type: cell-based; settings: FIG. 1, versus recombinant salmon calcitonin
T1 construct: endogenous in cells; host or cells: T47D cells
T1 sequence (P30988 25-474): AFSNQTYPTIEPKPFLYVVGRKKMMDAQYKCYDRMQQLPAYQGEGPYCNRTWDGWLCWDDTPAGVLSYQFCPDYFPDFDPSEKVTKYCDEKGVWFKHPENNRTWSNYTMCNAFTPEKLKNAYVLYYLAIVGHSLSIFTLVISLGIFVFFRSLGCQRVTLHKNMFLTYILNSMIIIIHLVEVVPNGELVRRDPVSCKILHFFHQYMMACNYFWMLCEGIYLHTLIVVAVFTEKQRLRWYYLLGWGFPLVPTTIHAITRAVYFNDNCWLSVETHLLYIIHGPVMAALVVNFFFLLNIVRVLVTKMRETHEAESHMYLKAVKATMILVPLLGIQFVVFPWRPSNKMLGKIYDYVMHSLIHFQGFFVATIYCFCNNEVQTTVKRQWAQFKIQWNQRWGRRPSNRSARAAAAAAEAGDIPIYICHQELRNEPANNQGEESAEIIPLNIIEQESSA
Procedure: FIG. 1 is a graph illustrating data from a bioassay comparing cAMP response for a peptide of the invention, SEQ ID NO: 3, versus recombinant salmon calcitonin. Two replicate bioassay experiments were performed measuring the cAMP response with T47D cells. Each experiment compared three samples of SEQ ID NO: 3 to a sample of rsCT.

[4] = target: T2, calcitonin receptors on T47D cells (Homo sapiens, UniProt P30988); assay: binding to calcitonin receptors on T47D cells
T2 construct: endogenous in cells; host or cells: T47D cells
T2 sequence (P30988 25-474): T1 sequence (P30988 25-474)
Excerpt: FIG. 4 is a graph illustrating calcitonin-like properties of three peptides of the invention in comparison to salmon calcitonin in an assay that measures binding to calcitonin receptors on T47D cells. The three peptides of the invention are UGP269 (SEQ ID NO: 12), UGP 271 (SEQ ID NO: 13) and UGP281 (SEQ ID NO: 14).

[5] = rats injected intramuscularly daily, two weeks, FIG. 6
[6] = rats injected daily, 7 and 14 days, FIG. 5, versus placebo

Compound	effect on food intake [1]	change in weight during the dosing period [1]	relative weight change [2, 5]	potency in reducing food consumption relative to sCT ([1]; FIGS. 1-3)	cAMP response (indicator of calcitonin receptor activation) compared with salmon calcitonin [3]	binding to calcitonin receptors compared with sCT ([4]; FIG. 4)	relative weight change [2, 6]	effectiveness in weight control ([2]; rats)	binding to calcitonin receptors compared with sCT ([4]; FIG. 4, listed as UGP 271)	enhancement of efficacy by the acetyl group on cysteine-1 ([2]; rats, FIG. 6, UGP281 versus UGP271)
CC(C)C[C@H](NC(=O)[C@H](CCCCN)NC(=O)CNC(=O)[C@H](CC(C)C)NC(=O)[C@@H](NC(=O)[C@@H]1CSSC[C@H](N)C(=O)N[C@@H](CO)C(=O)N[C@@H](CC(N)=O)C(=O)N[C@@H](CC(C)C)C(=O)N[C@@H](CO)C(=O)N[C@@H]([C@@H](C)O)C(=O)N1)C(C)C)C(=O)N[C@@H](CO)C(=O)N[C@@H](CCC(N)=O)C(=O)N[C@@H](CCC(=O)O)C(=O)N[C@@H](CC(C)C)C(=O)N[C@@H](Cc1c[nH]cn1)C(=O)N[C@@H](CCCCN)C(=O)N[C@@H](CC(C)C)C(=O)N[C@@H](CCC(N)=O)C(=O)N[C@H](C(=O)N[C@@H](Cc1ccc(O)cc1)C(=O)N1CCC[C@H]1C(=O)N[C@@H](CCCNC(=N)N)C(=O)N[C@H](C(=O)N[C@@H](CC(N)=O)C(=O)N[C@H](C(=O)NCC(=O)N[C@@H](CO)C(=O)NCC(=O)N[C@H](C(=O)N1CCC[C@H]1C(N)=O)[C@@H](C)O)[C@@H](C)O)[C@@H](C)O)[C@@H](C)O [sCT, salmon calcitonin]	significantly decreased food intake	small but significant reduction in weight	significant weight loss							
PYY(3-36)NH2	lesser effect	0.05 % per day								
SEQ ID NO: 3: salmon calcitonin sequence except asparagine at position 30 and tyrosine at position 32, amidated at tyrosine-32 (CSNLSTCVLGKLSQELHKLQTYPRTNTGSNTY-NH2; ends and bridges not checked)	significantly decreased food intake	small but significant reduction in weight		comparable to that of the bone anti-resorptive peptide sCT	less potent when binding to the calcitonin receptor than is natural salmon calcitonin					
UGP269: peptide of the invention, calcitonin analog (CSNLSTCVLGKLSQELHKLQTYPRTNTGSNTY-NH2; disulfide 1-7; N-terminus assumed; SMILES CC(C)C[C@H](NC(=O)[C@H](CCCCN)NC(=O)CNC(=O)[C@H](CC(C)C)NC(=O)[C@@H](NC(=O)[C@@H]1CSSC[C@H](N)C(=O)N[C@@H](CO)C(=O)N[C@@H](CC(N)=O)C(=O)N[C@@H](CC(C)C)C(=O)N[C@@H](CO)C(=O)N[C@@H]([C@@H](C)O)C(=O)N1)C(C)C)C(=O)N[C@@H](CO)C(=O)N[C@@H](CCC(N)=O)C(=O)N[C@@H](CCC(=O)O)C(=O)N[C@@H](CC(C)C)C(=O)N[C@@H](Cc1c[nH]cn1)C(=O)N[C@@H](CCCCN)C(=O)N[C@@H](CC(C)C)C(=O)N[C@@H](CCC(N)=O)C(=O)N[C@H](C(=O)N[C@@H](Cc1ccc(O)cc1)C(=O)N1CCC[C@H]1C(=O)N[C@@H](CCCNC(=N)N)C(=O)N[C@H](C(=O)N[C@@H](CC(N)=O)C(=O)N[C@H](C(=O)NCC(=O)N[C@@H](CO)C(=O)N[C@@H](CC(N)=O)C(=O)N[C@H](C(=O)N[C@@H](Cc1ccc(O)cc1)C(N)=O)[C@@H](C)O)[C@@H](C)O)[C@@H](C)O)[C@@H](C)O)						less binding to sCT receptors than sCT; also recorded: less binding affinity for the calcitonin receptor than does salmon calcitonin	less weight gain over two weeks than those injected with placebo	good effectiveness in weight control		
UGP271: nearly the same sequence as UGP269 except for the replacement of three amino acids at positions 26, 27 and 29 (CSNLSTCVLGKLSQELHKLQTYPRTDVGANTY-NH2; disulfide 1-7; N-terminus assumed; SMILES CC(C)C[C@H](NC(=O)[C@H](CCCCN)NC(=O)CNC(=O)[C@H](CC(C)C)NC(=O)[C@@H](NC(=O)[C@@H]1CSSC[C@H](N)C(=O)N[C@@H](CO)C(=O)N[C@@H](CC(N)=O)C(=O)N[C@@H](CC(C)C)C(=O)N[C@@H](CO)C(=O)N[C@@H]([C@@H](C)O)C(=O)N1)C(C)C)C(=O)N[C@@H](CO)C(=O)N[C@@H](CCC(N)=O)C(=O)N[C@@H](CCC(=O)O)C(=O)N[C@@H](CC(C)C)C(=O)N[C@@H](Cc1c[nH]cn1)C(=O)N[C@@H](CCCCN)C(=O)N[C@@H](CC(C)C)C(=O)N[C@@H](CCC(N)=O)C(=O)N[C@H](C(=O)N[C@@H](Cc1ccc(O)cc1)C(=O)N1CCC[C@H]1C(=O)N[C@@H](CCCNC(=N)N)C(=O)N[C@H](C(=O)N[C@@H](CC(=O)O)C(=O)N[C@H](C(=O)NCC(=O)N[C@@H](C)C(=O)N[C@@H](CC(N)=O)C(=O)N[C@H](C(=O)N[C@@H](Cc1ccc(O)cc1)C(N)=O)[C@@H](C)O)C(C)C)[C@@H](C)O)[C@@H](C)O)			modest weight loss			less binding to sCT receptors than sCT	no weight gain	good effectiveness in weight control	less binding affinity for the calcitonin receptor than does salmon calcitonin	
UGP281: amino acid sequence identical to UGP271 except acylated at the N-terminus with acetate (Ac-CSNLSTCVLGKLSQELHKLQTYPRTDVGANTY-NH2; disulfide 1-7; SMILES CC(=O)N[C@H]1CSSC[C@@H](C(=O)N[C@H](C(=O)N[C@@H](CC(C)C)C(=O)NCC(=O)N[C@@H](CCCCN)C(=O)N[C@@H](CC(C)C)C(=O)N[C@@H](CO)C(=O)N[C@@H](CCC(N)=O)C(=O)N[C@@H](CCC(=O)O)C(=O)N[C@@H](CC(C)C)C(=O)N[C@@H](Cc2c[nH]cn2)C(=O)N[C@@H](CCCCN)C(=O)N[C@@H](CC(C)C)C(=O)N[C@@H](CCC(N)=O)C(=O)N[C@H](C(=O)N[C@@H](Cc2ccc(O)cc2)C(=O)N2CCC[C@H]2C(=O)N[C@@H](CCCNC(=N)N)C(=O)N[C@H](C(=O)N[C@@H](CC(=O)O)C(=O)N[C@H](C(=O)NCC(=O)N[C@@H](C)C(=O)N[C@@H](CC(N)=O)C(=O)N[C@H](C(=O)N[C@@H](Cc2ccc(O)cc2)C(N)=O)[C@@H](C)O)C(C)C)[C@@H](C)O)[C@@H](C)O)C(C)C)NC(=O)[C@H]([C@@H](C)O)NC(=O)[C@H](CO)NC(=O)[C@H](CC(C)C)NC(=O)[C@H](CC(N)=O)NC(=O)[C@H](CO)NC1=O)			significant weight loss			less binding to sCT receptors than sCT; also recorded: less binding affinity for the calcitonin receptor than does salmon calcitonin		good effectiveness in weight control		substantial enhancement of efficacy
